Measurements reported in patent US10889849B2, “Oxidized glutathione assay” (PROMEGA CORPORATION, priority 2010, dated 2021).

Legend:
[1] = molecular target: T1, S. japonica GST (Sigma) (Schistosoma japonicum, UniProt P08515); assay: Two step luminescent test of GST-3 as GST substrate, S. japonica GST; assay type: biochemical
T1 construct: purchased Sigma
Method: (§1) In the first step, GST-3 was added to a mixture containing a GST enzyme with or without glutathione. At different times after reaction initiation, a portion of the reaction was mixed with a luciferase reaction mixture. Reactions in which light production increased over time indicate that the derivative, GST-3, is a substrate for GST and can be used in an assay to detect GST and/or reduced glutathione (GSH).
(§2) Various GST enzyme forms were used to test the use of GST-3 as a substrate for GST to detect GST or GSH. All components except for the GST enzyme were added.

[2] = system: porcine GST (Sigma); assay: Two step luminescent test of GST-3 as GST substrate, porcine GST; assay type: biochemical
Method: as §1, §2

[3] = system: equine GST (Sigma); assay: Two step luminescent test of GST-3 as GST substrate, equine GST; assay type: biochemical
Method: as §1, §2

[4] = Two step luminescent test of GST-3, reactions without GST enzyme; assay type: biochemical
Method: as §1, §2

[5] = molecular target: T2, GST (Promega) (Schistosoma japonicum, UniProt P08515); assay: GSSG measurement with other luciferin derivatives (luminescence); assay type: biochemical; conditions: GSSG 0.0 μM, luminescence without GSSG subtracted
T2 construct: purchased Promega
T2 sequence (P08515 whole entry): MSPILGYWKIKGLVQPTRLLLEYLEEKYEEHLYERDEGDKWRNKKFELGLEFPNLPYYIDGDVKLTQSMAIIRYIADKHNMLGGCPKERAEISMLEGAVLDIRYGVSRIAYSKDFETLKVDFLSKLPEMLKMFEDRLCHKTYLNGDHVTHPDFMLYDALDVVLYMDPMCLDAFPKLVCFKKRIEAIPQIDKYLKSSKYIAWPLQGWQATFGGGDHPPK
Method: Oxidized glutathione was serially diluted from a 10 mM stock in water to 0, 0.1, 0.5 and 2.5 uM into three different 96-well luminometer plates with duplicate reactions performed. A 30 μl sample of the GST 30 stock was diluted to 3 ml with GSH Glo Reaction Buffer (Promega), and 25 μl added to one of the plates (“30”). A 30 μl sample of GST 28 was diluted to 3 ml with GSH Glo Reaction Buffer, and 25 μl added to a second plate (“28”). A 110 μL sample of GST-22 was diluted to 3 ml with GSH Glo Reaction Buffer, and 25 μl added to the third plate (“GST-22” or “NT”). 50 μl of GSH Glo Reaction Buffer was then added to half the samples of each plate. 25 μl GSH Glo Reaction Buffer with DTT (150 μl of 100 mM DTT to 15 ml of GSH Glo Reaction Buffer) was added to the other half of the samples in each of the plates.
A 60 μl sample of GST (Promega) was diluted to 1 ml with GSH Glo Reaction Buffer, and 50 μl added to duplicate columns of each plate. […] The resulting luminescence was collected, and the duplicates averaged. The luminescence measured in the absence of GSSG was subtracted from that of the three GSSG concentrations, and the resulting values are presented in Table 6.

[6] = system: GST M; assay: Fluorescent detection of glutathione using Coumarin derivatives, GST M; assay type: biochemical; conditions: images at 1, 3, 5 and 20 minutes post GST enzyme addition
[7] = system: GST A; assay: Fluorescent detection of glutathione using Coumarin derivatives, GST A; assay type: biochemical; conditions: images at 1, 3, 5 and 20 minutes post GST enzyme addition
Method: (§3) A Prionex® solution was made by mixing 200 μl of 10% Prionex® (Sigma) with 9.8 ml of 10 mM potassium phosphate buffer, pH 7.4, and 75 μl added to all wells of a 96-well, microtiter plate (“sample plate”). Stock solutions (2 mg/ml) of the GST enzymes GST (Promega Corp. V689B), GST A, GST B, and GST P (purified to have less than 1 mole of GSH per mole of protein) were diluted by addition of 12 ul of the enzyme to 150 ul of 10 mM Potassium Phosphate buffer pH 7.4/Prionex solution. These diluted stocks were then added to the wells. 75 ul of the diluted stocks were added to the wells in row A, and 75 ul transferred from row A through to row H to generate 1:1 serially diluted enzyme solutions.
(§4) To a different, 96-well microtiter plate, 25 μl of diluted PBI 4153 (25 μl 1 mg/ml solution of PBI 4153 with 5 ml of 10 mM potassium phosphate pH 7.4) was added to wells A1-H10 of the plate (“4153”). […]
(§5) If one or more of the GST enzyme forms can catalyze the Coumarin compound in the presence of glutathione, the samples containing a GST enzyme form will have an increase in fluorescence. The better the GST enzyme form can utilize the Coumarin derivative, the more rapid the increase in fluorescence, and the lower the concentrations of GST enzyme needed to be able to produce a substantial increase in fluorescence over time.

[8] = molecular target: T3, GST (Promega Corp. V689B) (Schistosoma japonicum, UniProt P08515); assay: Fluorescent detection of glutathione using Coumarin derivatives, GST from Promega; assay type: biochemical; conditions: images at 1, 3, 5 and 20 minutes post GST enzyme addition
T3 construct: purchased Promega Corp. V689B
Method: as §3, §4, §5

[9] = molecular target: GST P (Homo sapiens, UniProt P09211); assay: Fluorescent detection of glutathione using Coumarin derivatives, GST P; assay type: biochemical; conditions: images at 1, 3, 5 and 20 minutes post GST enzyme addition
Sequence of GST P (P09211 whole entry): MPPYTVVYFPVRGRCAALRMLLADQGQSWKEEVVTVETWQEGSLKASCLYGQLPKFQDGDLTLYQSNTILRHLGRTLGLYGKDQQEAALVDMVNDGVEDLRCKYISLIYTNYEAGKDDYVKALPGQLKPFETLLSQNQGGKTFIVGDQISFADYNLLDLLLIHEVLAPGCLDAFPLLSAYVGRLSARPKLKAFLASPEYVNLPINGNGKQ
Method: as §3, §4, §5

[10] = Fluorescent detection using Coumarin derivatives, control wells with only buffer (no GST); assay type: biochemical; conditions: reduced glutathione present, 1, 3, 5 and 20 minutes
Method: as §3, §4, §5

[11] = numerous reports (Srivastava et al. 2010); leading to cell death by apoptosis or necrosis; cited from earlier work

T1 sequence (P08515 whole entry): as the sequence (P08515 whole entry) above

## O=C(O)[C@H]1CSC(c2ccc3cc(Oc4ccc(C(F)(F)F)cc4[N+](=O)[O-])ccc3n2)=N1 [GST-3, 6-(2 nitro-4-trifluoromethyl-phenoxy)quinolinyl-luciferin]
[1]; reaction 3: S. japonica GST, no glutathione, 0.1 minutes
  Luminescence values (RLUs): 32.67 RLUs
[1]; reaction 3: S. japonica GST, no glutathione, 5 minutes
  Luminescence values (RLUs): 32.42 RLUs
[1]; reaction 3: S. japonica GST, no glutathione, 10 minutes
  Luminescence values (RLUs): 38.65 RLUs
[1]; reaction 3: S. japonica GST, no glutathione, 15 minutes
  Luminescence values (RLUs): 33.82 RLUs
[1]; reaction 4: S. japonica GST with glutathione, 0.1 minutes
  Luminescence values (RLUs): 32.57 RLUs
[1]; reaction 4: S. japonica GST with glutathione, 5 minutes
  Luminescence values (RLUs): 40.79 RLUs
[1]; reaction 4: S. japonica GST with glutathione, 10 minutes
  Luminescence values (RLUs): 48.64 RLUs
[1]; reaction 4: S. japonica GST with glutathione, 15 minutes
  Luminescence values (RLUs): 61.54 RLUs
[2]; reaction 5: porcine GST, no glutathione, 0.1 minutes
  Luminescence values (RLUs): 46.95 RLUs
[2]; reaction 5: porcine GST, no glutathione, 5 minutes
  Luminescence values (RLUs): 51.85 RLUs
[2]; reaction 5: porcine GST, no glutathione, 10 minutes
  Luminescence values (RLUs): 51.15 RLUs
[2]; reaction 5: porcine GST, no glutathione, 15 minutes
  Luminescence values (RLUs): 48.41 RLUs
[2]; reaction 6: porcine GST with glutathione, 0.1 minutes
  Luminescence values (RLUs): 71.1 RLUs
[2]; reaction 6: porcine GST with glutathione, 5 minutes
  Luminescence values (RLUs): 269.1 RLUs
[2]; reaction 6: porcine GST with glutathione, 10 minutes
  Luminescence values (RLUs): 463.2 RLUs
[2]; reaction 6: porcine GST with glutathione, 15 minutes
  Luminescence values (RLUs): 619.3 RLUs
[3]; reaction 7: equine GST, no glutathione, 0.1 minutes
  Luminescence values (RLUs): 30.42 RLUs
[3]; reaction 7: equine GST, no glutathione, 5 minutes
  Luminescence values (RLUs): 32.98 RLUs
[3]; reaction 7: equine GST, no glutathione, 10 minutes
  Luminescence values (RLUs): 38.75 RLUs
[3]; reaction 7: equine GST, no glutathione, 15 minutes
  Luminescence values (RLUs): 38.39 RLUs
[3]; reaction 8: equine GST with glutathione, 0.1 minutes
  Luminescence values (RLUs): 252.2 RLUs
[3]; reaction 8: equine GST with glutathione, 5 minutes
  Luminescence values (RLUs): 3662 RLUs
[3]; reaction 8: equine GST with glutathione, 10 minutes
  Luminescence values (RLUs): 7629 RLUs
[3]; reaction 8: equine GST with glutathione, 15 minutes
  Luminescence values (RLUs): 9324 RLUs
[4]; reaction 1: no GST, no glutathione, 0.1 minutes
  Luminescence values (RLUs): 33.26 RLUs
[4]; reaction 1: no GST, no glutathione, 5 minutes
  Luminescence values (RLUs): 38.2 RLUs
[4]; reaction 1: no GST, no glutathione, 10 minutes
  Luminescence values (RLUs): 32.17 RLUs
[4]; reaction 1: no GST, no glutathione, 15 minutes
  Luminescence values (RLUs): 35.53 RLUs
[4]; reaction 2: no GST, with glutathione, 0.1 minutes
  Luminescence values (RLUs): 35.72 RLUs
[4]; reaction 2: no GST, with glutathione, 5 minutes
  Luminescence values (RLUs): 36.07 RLUs
[4]; reaction 2: no GST, with glutathione, 10 minutes
  Luminescence values (RLUs): 40.85 RLUs
[4]; reaction 2: no GST, with glutathione, 15 minutes
  Luminescence values (RLUs): 46.43 RLUs

## Cc1ccc(S(=O)(=O)Oc2ccc3nc(C4=N[C@@H](C(=O)O)CS4)sc3c2)c([N+](=O)[O-])c1 [GST-22, Luciferin 2-nitro-4-methylbenzenesulfonate]
[5]; GST with DTT
  Luminescence, GST with DTT: 0
[5]; without enzyme and DTT
  Luminescence, No DTT: 0
[5]; without enzyme but with DTT
  Luminescence, With DTT: 0

## Cc1cc(=O)oc2cc(OS(=O)(=O)c3ccc([N+](=O)[O-])cc3)ccc12 [PBI 4146]
[6]
  Utilization of the Coumarin compound (increase in fluorescence): can rapidly utilize the Coumarin compound
[7]
  Utilization of the Coumarin compound (increase in fluorescence): either did not utilize this compound or utilized it at very, very slow rate
[8]
  Utilization of the Coumarin compound (increase in fluorescence): can also utilize the compound, but at an even slower rate than GST M
[9]
  Utilization of the Coumarin compound (increase in fluorescence): either did not utilize this compound or utilized it at very, very slow rate
[10]
  Increase in fluorescence in control wells: no apparent increase in fluorescence

## Cc1cc(=O)oc2cc(OS(=O)(=O)c3ccc([N+](=O)[O-])c4ccccc34)ccc12 [PBI 4153]
[6]
  Utilization of the Coumarin compound (increase in fluorescence): can rapidly utilize the Coumarin compound as a substrate
[7]
  Utilization of the Coumarin compound (increase in fluorescence): can also utilize the compound, but at a slower rate
[8]
  Utilization of the Coumarin compound (increase in fluorescence): also utilized the compound but at an even slower rate than GST A
[9]
  Utilization of the Coumarin compound (increase in fluorescence): either did not utilize this compound or utilized it at a very, very slow rate
[10]
  Increase in fluorescence in control wells: no apparent increase in fluorescence

## CC(=O)Nc1ccc(O)cc1 [acetaminophen]
[11]
  Effect on the ratio of GSH to GSSG: dramatically reduce the ratio of GSH to GSSG

## NNC(=O)c1ccncc1 [isoniazid]
[11]
  Effect on the ratio of GSH to GSSG: dramatically reduce the ratio of GSH to GSSG

## CC/C(=C(\c1ccccc1)c1ccc(OCCN(C)C)cc1)c1ccccc1 [tamoxifen]
[11]
  Effect on the ratio of GSH to GSSG: dramatically reduce the ratio of GSH to GSSG
